pIC50: −log10 of the molar value.
System: 817829-284-R-J1-PDC complex spheroid viability
Test: Anticancer human tumor 817829-284-R-J1-PDC patient-derived colon adenocarcinoma cell line growth inhibition [POLQ]
Details: for pIC50: curve of first compound; for viability, T/C: stronger effect = lower value
Experimental: Multicellular complex tumor spheroid response to Polymerase (POL) inhibitors (novobiocin, ART-558, RP6685) in combination with a variety of drugs and investigational agents in selected tumor cell lines
The POL inhibitors (novobiocin, ART-558, and RP6685) were evaluated both individually and in combination with standard of care and investigational anticancer small molecules within a complex spheroid model of solid tumors. . Complex spheroids include a stromal component modeled by human endothelial cells (HUVEC) and fibroblasts modeled by human mesenchymal stem cells (MSCs). The concentration ranges selected for each drug and investigational agent were based upon clinically achievable concentrations if the clinical Cmax of the agent was known.
Compounds. The drugs and investigational agents: novobiocin (NSC847541), ART-558 (NSC835418), RP-6685 (NSC848927), peposertib (NSC802822), ceralasertib (NSC780249), elimusertib (NSC800525), camonsertib (NSC841442), AZD-1390 (NSC803789), olaparib (NSC753686), talazoparib (NSC767125), rucaparib (NSC756644), sotorasib (NSC818433), MRTX-1133 (NSC836407), SN-38 (NSC673596), topotecan (NSC609699), epotoside (NSC141540), doxorubicin (NSC123127), gemcitabine (NSC613327), 5-fluorouracil (NSC19893), paclitaxel (NSC125973), vemurafenib (NSC761431), MSA-2 (NSC828583), SN-011 (NSC837082), adavosertib (NSC754352), prexasertib (NSC758257), carboplatin (NSC241240) and oxaliplatin (NSC266046), were obtained from the National Cancer Institute (NCI) Developmental Therapeutics Program Chemical Repository (21). The FDA-approved anticancer drug set is available from the Developmental Therapeutics Program at https://dtp.cancer.gov/organization/dscb/obtaining/. […] The stock solutions were prepared in dimethyl sulfoxide (DMSO, Sigma-Aldrich, St. Louis, MO, cat. D2650), except for the platinum compounds which were prepared in saline (Quality Biological, Gaithersburg, MD, cat. 114-055-101), at 800-fold the tested concentration and stored at -70 degrees C prior to their use. All drugs and investigational agents were tested over a range starting from a high concentration at or near the clinical Cmax and decreasing in half-log increments. If the clinical Cmax for an agent had not been determined, the highest concentration tested was 10 microM, except for SN-38, which was tested at a high concentration of 1 microM.
Cell Culture. All cells were maintained in an incubator at 37 degrees C and 5% CO2 with 95% humidity. The PDC lines were cultured according to standard operating procedures established by the NCI PDMR (https://pdmr.cancer.gov). Table 3 of the manuscript, lists the cell lines along with the number of the three cell types plated to form the mct-spheroids and media for tumor cell growth. After thawing, all PDC lines, except 997537-175-T-J1-PDC and 415267-285-R-J2-PDC, were cultured in Matrigel-coated flasks prepared with a working solution of 1X Ham's F-12 nutrient mix, without supplementation (Thermo Fisher Scientific, cat. 11765054), 100 U/mL penicillin-streptomycin (Thermo Fisher Scientific, cat. 15140122), and 2.5% Matrigel (Corning Inc., Corning, NY, cat. 354248) for the first three passages. The two PDC lines 997537-175-T-J1-PDC and 415267-285-R-J2-PDC were cultured on uncoated flasks. The 857933-349-R-J2-PDC line was cultured in 6C/Colon 1B media containing advanced DMEM/F-12 (Thermo Fisher Scientific, cat. 12634028), 10 mM HEPES (Thermo Fisher Scientific, cat. 15630080), 1X GlutaMAX supplement (Thermo Fisher Scientific, cat. 35050061), 0.1 mg/mL primocin (InvivoGen, San Diego, CA, cat. ant-pm-2), 10% defined fetal bovine serum, heat inactivated (HyClone Laboratories Inc., Logan, UT, cat. SH30070.03HI), 50% L-WRN conditioned media (ATCC, cat. CRL-3276), 1.25 mM N-Acetyl-L-cysteine (Sigma-Aldrich, cat. A9165), 10 mM nicotinamide (Sigma-Aldrich, cat. N0636), 1X B-27 supplement (Thermo Fisher Scientific, cat. 17504044), 1X N-2 supplement (Thermo Fisher Scientific, cat. […]

[1] = second compound 0.0316 µM, first compound 0.0316 µM
[2] = second compound 0.0316 µM, first compound 0.1 µM
[3] = second compound 0.0316 µM, first compound 0.316 µM
[4] = second compound 0.0316 µM, first compound 1 µM
[5] = second compound 0.0316 µM, first compound 3.16 µM
[6] = second compound 0.0316 µM, first compound 10 µM
[7] = second compound 0.1 µM, first compound 0.0316 µM
[8] = second compound 0.1 µM, first compound 0.1 µM
[9] = second compound 0.1 µM, first compound 0.316 µM
[10] = second compound 0.1 µM, first compound 1 µM
[11] = second compound 0.1 µM, first compound 3.16 µM
[12] = second compound 0.1 µM, first compound 10 µM
[13] = second compound 0.316 µM, first compound 0.0316 µM
[14] = second compound 0.316 µM, first compound 0.1 µM
[15] = second compound 0.316 µM, first compound 0.316 µM
[16] = second compound 0.316 µM, first compound 1 µM
[17] = second compound 0.316 µM, first compound 3.16 µM
[18] = second compound 0.316 µM, first compound 10 µM
[19] = second compound 1 µM, first compound 0.0316 µM
[20] = second compound 1 µM, first compound 0.1 µM
[21] = second compound 1 µM, first compound 0.316 µM
[22] = second compound 1 µM, first compound 1 µM
[23] = second compound 1 µM, first compound 3.16 µM
[24] = second compound 1 µM, first compound 10 µM
[25] = second compound 3.16 µM, first compound 0.0316 µM
[26] = second compound 3.16 µM, first compound 0.1 µM
[27] = second compound 3.16 µM, first compound 0.316 µM
[28] = second compound 3.16 µM, first compound 1 µM
[29] = second compound 3.16 µM, first compound 3.16 µM
[30] = second compound 3.16 µM, first compound 10 µM
[31] = second compound 10 µM, first compound 0.0316 µM
[32] = second compound 10 µM, first compound 0.1 µM
[33] = second compound 10 µM, first compound 0.316 µM
[34] = second compound 10 µM, first compound 1 µM
[35] = second compound 10 µM, first compound 3.16 µM
[36] = second compound 10 µM, first compound 10 µM
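Further: spheroids exposed to compounds for 7 days.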
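Wherever viability, T/C is given: 100% = DMSO vehicle-treated spheroids.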

## Nc1ccn(C2OC(CO)C(O)C2(F)F)c(=O)n1 (stereo unspecified) + Nc1ccc(C#CCN(C(=O)Cc2ncc(C(F)(F)F)cc2C(F)(F)F)c2ccc(F)cc2)nn1
Second compound 0.0316 µM
  pIC50: > 7.50
Second compound 0.1 µM
  pIC50: > 7.50
Second compound 0.316 µM
  pIC50: > 7.50
Second compound 1 µM
  pIC50: > 7.50
Second compound 3.16 µM
  pIC50: > 7.50
Second compound 10 µM
  pIC50: > 7.50
[1]
  viability, T/C: 3.03%
[2]
  viability, T/C: 4.05%
[3]
  viability, T/C: 4.41%
[4]
  viability, T/C: 4.06%
[5]
  viability, T/C: 2.78%
[6]
  viability, T/C: 2.3%
[7]
  viability, T/C: 3.67%
[8]
  viability, T/C: 4.46%
[9]
  viability, T/C: 3.95%
[10]
  viability, T/C: 3.72%
[11]
  viability, T/C: 3.07%
[12]
  viability, T/C: 1.99%
[13]
  viability, T/C: 3.79%
[14]
  viability, T/C: 3.81%
[15]
  viability, T/C: 4.1%
[16]
  viability, T/C: 4.23%
[17]
  viability, T/C: 2.51%
[18]
  viability, T/C: 2.13%
[19]
  viability, T/C: 3.62%
[20]
  viability, T/C: 4.03%
[21]
  viability, T/C: 4.21%
[22]
  viability, T/C: 3.9%
[23]
  viability, T/C: 2.69%
[24]
  viability, T/C: 1.87%
[25]
  viability, T/C: 4.08%
[26]
  viability, T/C: 3.7%
[27]
  viability, T/C: 3.44%
[28]
  viability, T/C: 3.79%
[29]
  viability, T/C: 2.78%
[30]
  viability, T/C: 1.9%
[31]
  viability, T/C: 5.53%
[32]
  viability, T/C: 3.31%
[33]
  viability, T/C: 3.9%
[34]
  viability, T/C: 3.4%
[35]
  viability, T/C: 3.17%
[36]
  viability, T/C: 2.42%

## CCCS(=O)(=O)Nc1ccc(F)c(C(=O)c2c[nH]c3ncc(-c4ccc(Cl)cc4)cc23)c1F + Cc1cccc(N(C)C(=O)C2C(O)CCN2c2nc(C)cc(C(F)(F)F)c2C#N)c1
Second compound 0.0316 µM
  pIC50: 5.53
Second compound 0.1 µM
  pIC50: 5.35
Second compound 0.316 µM
  pIC50: 5.39
Second compound 1 µM
  pIC50: 5.43
Second compound 3.16 µM
  pIC50: 5.42
Second compound 10 µM
  pIC50: 5.62
[1]
  viability, T/C: 82.6%
[2]
  viability, T/C: 75.3%
[3]
  viability, T/C: 81.4%
[4]
  viability, T/C: 84.3%
[5]
  viability, T/C: 48.3%
[6]
  viability, T/C: 6.4%
[7]
  viability, T/C: 86.5%
[8]
  viability, T/C: 83.7%
[9]
  viability, T/C: 81.9%
[10]
  viability, T/C: 80.8%
[11]
  viability, T/C: 68.1%
[12]
  viability, T/C: 8.39%
[13]
  viability, T/C: 94.9%
[14]
  viability, T/C: 89.6%
[15]
  viability, T/C: 76.4%
[16]
  viability, T/C: 81.8%
[17]
  viability, T/C: 63.8%
[18]
  viability, T/C: 6.86%
[19]
  viability, T/C: 103%
[20]
  viability, T/C: 91.9%
[21]
  viability, T/C: 90.8%
[22]
  viability, T/C: 80.5%
[23]
  viability, T/C: 58.2%
[24]
  viability, T/C: 6.61%
[25]
  viability, T/C: 104%
[26]
  viability, T/C: 97%
[27]
  viability, T/C: 83.3%
[28]
  viability, T/C: 74.3%
[29]
  viability, T/C: 66.5%
[30]
  viability, T/C: 8.21%
[31]
  viability, T/C: 85.7%
[32]
  viability, T/C: 76.5%
[33]
  viability, T/C: 66.5%
[34]
  viability, T/C: 64.2%
[35]
  viability, T/C: 49.5%
[36]
  viability, T/C: 4.19%

## COc1cccc2c1C(=O)c1c(O)c3c(c(O)c1C2=O)CC(O)(C(=O)CO)CC3OC1CC(N)C(O)C(C)O1 (stereo unspecified) + Cc1cccc(N(C)C(=O)C2C(O)CCN2c2nc(C)cc(C(F)(F)F)c2C#N)c1
Second compound 0.0316 µM
  pIC50: > 7.50
Second compound 0.1 µM
  pIC50: > 7.50
Second compound 0.316 µM
  pIC50: > 7.50
Second compound 1 µM
  pIC50: > 7.50
Second compound 3.16 µM
  pIC50: > 7.50
Second compound 10 µM
  pIC50: > 7.50
[1]
  viability, T/C: 20.6%
[2]
  viability, T/C: 18.4%
[3]
  viability, T/C: 6.01%
[4]
  viability, T/C: 0.9%
[5]
  viability, T/C: 0.17%
[6]
  viability, T/C: 0.48%
[7]
  viability, T/C: 21.8%
[8]
  viability, T/C: 15.9%
[9]
  viability, T/C: 7.06%
[10]
  viability, T/C: 0.26%
[11]
  viability, T/C: 0.22%
[12]
  viability, T/C: 0.58%
[13]
  viability, T/C: 20.2%
[14]
  viability, T/C: 17.8%
[15]
  viability, T/C: 6.56%
[16]
  viability, T/C: 0.38%
[17]
  viability, T/C: 0.19%
[18]
  viability, T/C: 0.58%
[19]
  viability, T/C: 21.2%
[20]
  viability, T/C: 14.6%
[21]
  viability, T/C: 6.03%
[22]
  viability, T/C: 0.54%
[23]
  viability, T/C: 0.29%
[24]
  viability, T/C: 0.51%
[25]
  viability, T/C: 20.1%
[26]
  viability, T/C: 17.9%
[27]
  viability, T/C: 3.35%
[28]
  viability, T/C: 0.34%
[29]
  viability, T/C: 0.32%
[30]
  viability, T/C: 0.6%
[31]
  viability, T/C: 17.4%
[32]
  viability, T/C: 12.3%
[33]
  viability, T/C: 4.14%
[34]
  viability, T/C: 0.48%
[35]
  viability, T/C: 0.3%
[36]
  viability, T/C: 0.5%

Source: PubChem BioAssay AID1963839 (Molecular Pharmacology Branch, DTP, NCI, 2024)
